Non-standard residues stand in square brackets, D forms with d. Residues, ends and D or L forms follow the SMILES beside them. *: point of attachment. Sta = CC(C)C[C@H](N)[C@@H](O)CC(=O)O; Isovaleryl = CC(C)CC(=O)*
Experiments:
[1] = test system: protease activity of the culture supernatant of the Δpep4 strain; test: Protease activity of Δpep4 strain culture supernatant with pepstatin A added; format: biochemical, Talaromyces cellulolyticus
Procedure: (§1) The protein concentration of the culture supernatant of each strain was measured using Protein Assay CBB (Nacalai Tesque). To confirm protease activity against casein, protease activity was measured using Amplite™ Universal Fluorimetric Protease Activity Assay Kit *Green (AAT Bioquest, Inc.). At the same time, protease activity was also measured under conditions in which an aspartate protease inhibitor pepstatin A was added.
(§2) A 50-μL aliquot of a 2× assay buffer included in the kit containing 0.5 μL of a protease substrate included in the kit (green fluorescent casein substrate) was dispensed into a 96-well plate (Greiner, product number: 655090), and 50 μL of the culture supernatants of the control strain and the Δpep4 strain were added to respective wells. Under conditions with pepstatin A addition, pepstatin A (Sigma-Aldrich, product number: P2032) was added at a final concentration of 10 μM. Protease activity was measured by measuring Relative Fluorescence Units (RFU, excitation/emission=490/525 nm) every 2 minutes at 37° C. using a microplate reader system SpectraMax® M2 (Molecular Devices). The obtained RFU was divided by the total amount of protein used in the measurement and the reaction time, to thereby calculate the protease specific activity per total amount of protein in the culture supernatant. In the table, the term “relative activity” represents the ratio of the protease specific activity of each sample to the protease specific activity of the control strain in the absence of pepstatin A. In the absence of pepstatin A, the protease specific activity of the culture supernatant of the Δpep4 strain was reduced to approximately 36% of that of the control strain.

[2] = test system: protease activity of the culture supernatant of the control strain; test: Protease activity of control strain culture supernatant with pepstatin A added; format: biochemical, Talaromyces cellulolyticus
Procedure: as §1, §2

[3] = Pepstatin A 10 μM, ratio to control strain in the absence of pepstatin A

Compound: CC(C)CC(=O)N[C@H](C(=O)N[C@H](C(=O)N[C@@H](CC(C)C)[C@@H](O)CC(=O)N[C@@H](C)C(=O)N[C@@H](CC(C)C)[C@@H](O)CC(=O)O)C(C)C)C(C)C [Pepstatin A, pepstatin A] (Isovaleryl-VV[Sta]A[Sta]-OH)
- Protease specific activity ([1]; Pepstatin A 10 μM, 37° C.): 0.016 RFU/ug/min
- Relative activity [1, 3]: 34%
- difference in protease specific activity between presence or absence of pepstatin A ([1]; pepstatin A 10 μM): almost no difference
- Protease specific activity ([2]; Pepstatin A 10 μM, 37° C.): 0.006 RFU/ug/min
- Relative activity [2, 3]: 12%
- protease specific activity inhibited by pepstatin A ([2]; pepstatin A 10 μM): about 88%

Reference: patent publication US12492370B2, “Method for producing protein using a Talaromyces cellulolyticus strain having reduced activity of PEP4” (AJINOMOTO CO., INC., priority 2020, dated 2025)
